Among the data in US20150031674A1, “SERINE/THREONINE KINASE INHIBITORS” (GENENTECH, INC., priority 2013, published 2015) are Ki values, retold here.

The Ki is a measure of affinity in units of concentration, obtained from inhibition or displacement.

Sequence of human recombinant PAK1-KD protein (Q13153 270-521 limits assumed): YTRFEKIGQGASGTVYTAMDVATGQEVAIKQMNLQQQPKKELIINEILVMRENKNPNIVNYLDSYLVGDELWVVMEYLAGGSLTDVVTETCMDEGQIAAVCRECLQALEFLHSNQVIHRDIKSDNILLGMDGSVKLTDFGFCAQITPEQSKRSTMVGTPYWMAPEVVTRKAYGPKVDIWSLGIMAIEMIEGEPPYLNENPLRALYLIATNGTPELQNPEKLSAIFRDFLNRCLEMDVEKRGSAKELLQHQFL

This experiment concerns the target human recombinant PAK1-KD protein (Homo sapiens, UniProt Q13153). Nature of the experiment: PAK1-KD (Kinase Domain) IC50 Zlyte Assay (FRET peptide substrate phosphorylation). The conditions noted are these: Z'-LYTE, Biological Example 1.
For `CNc1ncc2cc(-c3ccc(-c4cncc(C)n4)cc3Cl)c(=O)n(CC(=O)N3CC[C@H](N)C3)c2n1` [Example I-143, 8-[2-[(3S)-3-Aminopyrrolidin-1-yl]-2-oxo-ethyl]-6-[2-chloro-4-(6-methylpyrazin-2-yl)phenyl]-2-(methylamino)pyrido[2,3-d]pyrimidin-7-one], the Ki came to 12.5 nM.

`CNc1ncc2cc(-c3ccc(-c4cccc(C)n4)cc3Cl)c(=O)n(CC3CNCCS3(=O)=O)c2n1` (single isomer, unassigned) [I-197 Isomer A, 6-[2-chloro-4-(6-methyl-2-pyridyl)phenyl]-8-[(1,1-dioxo-1 4-thiazinan-2-yl)methyl]-2-(methylamino)pyrido[2,3-d]pyrimidin-7-one]: the Ki was found to be 16.1 nM.

On to `CNc1ncc2cc(-c3ccc(-c4cccc(C)n4)cc3C)c(=O)n(CCS(=O)(=O)CCN)c2n1` [Example I-174, 8-[2-(2-aminoethylsulfonyl)ethyl]-2-(methylamino)-6-[2-methyl-4-(6-methyl-2-pyridyl)phenyl]pyrido[2,3-d]pyrimidin-7-one], for which the Ki is 7.2 nM.

On to `CCNc1ncc2cc(-c3ccc(-c4cncc(C)n4)cc3Cl)c(=O)n(C3COC4(CNC4)C3)c2n1` (centres unmarked) [Example I-58, 6-(2-Chloro-4-(6-methylpyrazin-2-yl)phenyl)-2-(ethylamino)-8-(5-oxa-2-azaspiro[3.4]octan-7-yl)pyrido[2,3-d]pyrimidin-7(8H)-one], for which the Ki worked out at 71.1 nM.

Turning to `CCNc1ncc2cc(-c3ccc(-c4cncc(C)n4)cc3Cl)c(=O)n(CCOC3CC(N)C3)c2n1` (centres unmarked) [Example I-117, 8-(2-(3-Aminocyclobutoxy)ethyl)-6-(2-chloro-4-(6-methylpyrazin-2-yl)phenyl)-2-(ethylamino)-pyrido[2,3-d]pyrimidin-7(8H)-one], the Ki is 3.7 nM.

Consider `CNc1ncc2cc(-c3ccc(-c4cncc(C)n4)cc3Cl)c(=O)n(CC(=O)N3CC[C@@H](N)C3)c2n1` [Example I-152, 8-[2-[(3R)-3-Aminopyrrolidin-1-yl]-2-oxo-ethyl]-6-[2-chloro-4-(6-methylpyrazin-2-yl)phenyl]-2-(methylamino)pyrido[2,3-d]pyrimidin-7-one], for which the Ki was found to be 21.1 nM.

For `Cc1cccc(-c2ccc(-c3cc4cnc(NCC(F)F)nc4n(CCC4CNCCO4)c3=O)c(C)c2)n1` (racemic) [Example I-126, 2-(2,2-Difluoroethylamino)-6-[2-methyl-4-(6-methyl-2-pyridyl)phenyl]-8-(2-morpholin-2-ylethyl)pyrido[2,3-d]pyrimidin-7-one], the Ki is 2.5 nM.

For `Cc1cncc(-c2ccc(-c3cc4cnc(NC5COC5)nc4n(CCCCO)c3=O)c(Cl)c2)n1` [Example I-50, 6-[2-Chloro-4-(6-methylpyrazin-2-yl)phenyl]-8-(4-hydroxybutyl)-2-(oxetan-3-ylamino)pyrido[2,3-d]pyrimidin-7-one], the Ki was found to be 45.6 nM.

Regarding `CNc1ncc2cc(-c3ccc(-c4cccc(C)n4)cc3C)c(=O)n(C[C@H]3OC[C@H](N)CO3)c2n1` [Example I-170, 8-[(5-Amino-1,3-dioxan-2-yl)methyl]-2-(methylamino)-6-[2-methyl-4-(6-methyl-2-pyridyl)phenyl]pyrido[2,3-d]pyrimidin-7-one], the Ki was 5.3 nM.

As for `Cc1cccc(-c2ccc(-c3cc4cnc(NC(C)C)nc4n(CC(=O)N4CCNCC4)c3=O)c(Cl)c2)n1` [Example I-35, 6-[2-Chloro-4-(6-methyl-2-pyridyl)phenyl]-2-(isopropylamino)-8-(2-oxo-2-piperazin-1-yl-ethyl)pyrido[2,3-d]pyrimidin-7-one], the Ki was found to be 4.2 nM.

With `CNc1ncc2cc(-c3ccc(-c4cccc(C)n4)cc3Cl)c(=O)n(CC[C@H]3OC[C@@H](N)CO3)c2n1` [Example I-134, 8-[2-(5-amino-1,3-dioxan-2-yl)ethyl]-6-[2-chloro-4-(6-methyl-2-pyridyl)phenyl]-2-(methylamino)pyrido[2,3-d]pyrimidin-7-one], the Ki worked out at 3.45 nM.
